This note sets out measurements from US7968570B2, “Isoindolone compounds and their use as metabotropic glutamate receptor potentiators” (AstraZeneca AB, priority 2004, dated 2011).

The assay deals with T1, human mGluR2 receptor (Homo sapiens, UniProt Q14416).
T1 construct: expressed in transfected cells
T1 sequence (Q14416 19-872): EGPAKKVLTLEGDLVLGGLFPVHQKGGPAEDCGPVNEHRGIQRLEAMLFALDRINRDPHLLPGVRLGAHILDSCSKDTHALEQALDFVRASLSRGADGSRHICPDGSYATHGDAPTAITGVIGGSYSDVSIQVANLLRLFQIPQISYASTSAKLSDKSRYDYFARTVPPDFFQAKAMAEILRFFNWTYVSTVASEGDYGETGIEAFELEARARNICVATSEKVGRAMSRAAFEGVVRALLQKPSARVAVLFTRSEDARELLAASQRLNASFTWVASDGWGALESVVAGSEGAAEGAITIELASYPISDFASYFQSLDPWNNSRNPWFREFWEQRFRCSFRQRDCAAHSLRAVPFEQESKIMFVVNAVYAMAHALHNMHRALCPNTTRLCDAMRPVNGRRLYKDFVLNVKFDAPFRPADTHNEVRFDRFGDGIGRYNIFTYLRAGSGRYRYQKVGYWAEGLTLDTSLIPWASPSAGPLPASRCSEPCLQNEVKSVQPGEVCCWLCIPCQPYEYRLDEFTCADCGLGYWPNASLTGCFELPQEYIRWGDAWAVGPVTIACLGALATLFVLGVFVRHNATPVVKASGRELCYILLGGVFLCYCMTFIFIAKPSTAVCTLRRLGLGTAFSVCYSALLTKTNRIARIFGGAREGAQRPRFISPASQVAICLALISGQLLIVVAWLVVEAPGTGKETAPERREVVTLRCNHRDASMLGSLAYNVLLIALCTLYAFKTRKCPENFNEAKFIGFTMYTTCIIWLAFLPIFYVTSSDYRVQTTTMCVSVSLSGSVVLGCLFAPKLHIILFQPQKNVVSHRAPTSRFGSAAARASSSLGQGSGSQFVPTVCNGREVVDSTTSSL
Briefly: [35S]-GTPγS binding assay of mGluR2 receptor activation. Conditions: membranes from CHO cells stably expressing human mGluR2; 1 μM glutamate. The assay is classed as biochemical. As to the method:
A [^35S]-GTPγS binding assay was used to functionally assay mGluR2 receptor activation. The allosteric activator activity of compounds at the human mGluR2 receptor were measured using a [^35S]-GTPγS binding assay with membranes prepared from CHO cells which stably express the human mGluR2. The assay is based upon the principle that agonists bind to G-protein coupled receptors to stimulate GDP-GTP exchange at the G-protein. Since [^35S]-GTPγS is a non-hydrolyzable GTP analog, it can be used to provide an index of GDP-GTP exchange and, thus, receptor activation. The GTPγS binding assay therefore provides a quantitative measure of receptor activation.
Membranes were prepared from CHO cells stably transfected with human mGluR2. Membranes (30 μg protein) were incubated with test compound (3 nM to 300 μM) for 15 minutes at room temperature prior to the addition of 1 μM glutamate, and incubated for 30 min at 30° C. in 500 μl assay buffer (20 mM HEPES, 100 mM NaCl, 10 mM MgCl2), containing 30 μM GDP and 0.1 nM [^35S]-GTPγS (1250 Ci/mmol). Reactions were carried out in triplicate in 2 ml polypropylene 96-well plates. Reactions were terminated by vacuum filtration using a Packard 96-well harvester and Unifilter-96, GF/B filter microplates. The filter plates were washed 4×1.5 ml with ice-cold wash buffer (10 mM sodium phosphate buffer, pH 7.4). The filter plates were dried and 35 μl of scintillation fluid (Microscint 20) was added to each well. The amount of radioactivity bound was determined by counting plates on the Packard TopCount. Data was analyzed using GraphPad Prism, and EC50 and Emax values (relative to the maximum glutamate effect) were calculated using non-linear regression.
In general terms: Binding of GTPγS marks nucleotide exchange on a G protein.
Take `CN(C)[C@H]1CCN(c2cc(Cl)c3c(c2)CN(Cc2ccc(OC(F)(F)F)cc2)C3=O)C1` (stereo in doubt) [Example 144, 7-Chloro-5-(3-dimethylamino-pyrrolidin-1-yl)-2-(4-trifluoromethoxy-benzyl)-2,3-dihydro-isoindol-1-one]: a half-maximal response (EC50) required 310 nM.
The figure for `Cc1cc(Br)cc2c1C(=O)N(Cc1ccc(OC(F)(F)F)cc1)C2` [Example 30, 5-Bromo-7-methyl-2-(4-trifluoromethoxy-benzyl)-2,3-dihydro-isoindol-1-one] is 370 nM.
The figure for `Cc1cc(Br)cc2c1C(=O)N(Cc1ccc(Cl)cc1)C2` [Example 31, 5-Bromo-2-(4-chlorobenzyl)-7-methyl-2,3-dihydroisoindol-1-one] is 710 nM.
The figure for `COc1cc(Br)cc2c1C(=O)N(Cc1ccc(Cl)cc1)C2` [Example 32, 5-Bromo-2-(4-chloro-benzyl)-7-methoxy-2,3-dihydro-isoindol-1-one] is 2800 nM.
As for `O=C1c2c(Cl)cc(Br)cc2CN1Cc1ccc(OC(F)(F)F)cc1` [Example 33, 5-Bromo-7-chloro-2-(4-trifluoromethoxy-benzyl)-2,3-dihydro-isoindol-1-one], a half-maximal effect (EC50) was put at 140 nM.
The figure for `O=C1c2c(Cl)cc(Br)cc2CN1Cc1ccc(Cl)cc1` [Example 34, 5-Bromo-7-chloro-2-(4-chloro-benzyl)-2,3-dihydro-isoindol-1-one] is 470 nM; for `Cc1cc(CN2CC=CC2)cc2c1C(=O)N(Cc1ccc(OC(F)(F)F)cc1)C2` [Example 39, 5-(2,5-Dihydro-pyrrol-1-ylmethyl)-7-methyl-2-(4-trifluoromethoxy-benzyl)-2,3-dihydro-isoindol-1-one] it is 2400 nM.
The figure for `Cc1cc(CNCc2ccccn2)cc2c1C(=O)N(Cc1ccc(OC(F)(F)F)cc1)C2` [Example 40, 7-Methyl-5-{[(pyridine-2-ylmethyl)-amino]-methyl}-2-(4-trifluoromethoxy-benzyl)-2,3-dihydro-isoindol-1-one] is 1450 nM.
With `Cc1cc(CNCc2cccnc2)cc2c1C(=O)N(Cc1ccc(OC(F)(F)F)cc1)C2` [Example 41, 7-Methyl-5-{[(pyridine-3-ylmethyl)-amino]-methyl}-2-(4-trifluoromethoxy-benzyl)-2,3-dihydro-isoindol-1-one], the half-maximal effective concentration (EC50) was 910 nM.
In turn, `Cc1cc(CNCc2ccncc2)cc2c1C(=O)N(Cc1ccc(OC(F)(F)F)cc1)C2` [Example 42, 7-Methyl-5-{[(pyridine-4-ylmethyl)-amino]-methyl}-2-(4-trifluoromethoxy-benzyl)-2,3-dihydro-isoindol-1-one] yielded an EC50 of 470 nM.
Compound `Cc1cc(CN2CCN(c3ccccn3)CC2)cc2c1C(=O)N(Cc1ccc(OC(F)(F)F)cc1)C2` [Example 43, 7-Methyl-5-(4-pyridin-2-yl-piperazin-1-ylmethyl)-2-(4-trifluoromethoxy-benzyl)-2,3-dihydro-isoindol-1-one] registered an EC50 of 50 nM.
Take `Cc1cc(CN2CCOCC2)cc2c1C(=O)N(Cc1ccc(OC(F)(F)F)cc1)C2` [Example 44, 7-Methyl-5-morpholin-4-ylmethyl-2-(4-trifluoromethoxy-benzyl)-2,3-dihydro-isoindol-1-one]: it took 590 nM to reach a half-maximal effect (EC50).
In the case of `Cc1cc(CNCc2ccccc2)cc2c1C(=O)N(Cc1ccc(OC(F)(F)F)cc1)C2` [Example 45, 5-(Benzylamino-methyl)-7-methyl-2-(4-trifluoromethoxy-benzyl)-2,3-dihydro-isoindol-1-one] it was 390 nM.
The figure for `Cc1cc(CNCCc2ccccc2)cc2c1C(=O)N(Cc1ccc(OC(F)(F)F)cc1)C2` [Example 46, 7-Methyl-5-(phenethylamino-methyl)-2-(4-trifluoromethoxy-benzyl)-2,3-dihydro-isoindol-1-one] is 630 nM; for `Cc1cc(CNCCCc2ccccc2)cc2c1C(=O)N(Cc1ccc(OC(F)(F)F)cc1)C2` [Example 47, 7-Methyl-5-[(3-phenyl-propylamino)-methyl]-2-(4-trifluoromethoxy-benzyl)-2,3-dihydro-isoindol-1-one] it is 340 nM; for `Cc1cc(CNC2Cc3ccccc3C2)cc2c1C(=O)N(Cc1ccc(OC(F)(F)F)cc1)C2` [Example 48, 5-(Indan-2-ylaminomethyl)-7-methyl-2-(4-trifluoromethoxy-benzyl)-2,3-dihydro-isoindol-1-one] it is 410 nM.
In the case of `Cc1cc(CN2CCC(N3CCCCC3)CC2)cc2c1C(=O)N(Cc1ccc(OC(F)(F)F)cc1)C2` [Example 49, 5-[1, 4″]Bipiperidinyl-1″-ylmethyl-7-methyl-2-(4-trifluoromethoxy-benzyl)-2,3-dihydro-isoindol-1-one] it was 3250 nM; in that of `CCN(CC)C(=O)C1CCCN(Cc2cc(C)c3c(c2)CN(Cc2ccc(OC(F)(F)F)cc2)C3=O)C1` (stereo not shown) [Example 50, 1-[7-Methyl-1-oxo-2-(4-trifluoromethoxy-benzyl)-2,3-dihydro-1H-isoindol-5-ylmethyl]-piperidine-3-carboxylic acid diethylamide], 1810 nM; in that of `COCCCNCc1cc(C)c2c(c1)CN(Cc1ccc(OC(F)(F)F)cc1)C2=O` [Example 51, 5-[(3-Methoxy-propylamino)-methyl]-7-methyl-2-(4-trifluoromethoxy-benzyl)-2,3-dihydro-isoindol-1-one], 1800 nM.
`Cc1cc(CNCC(C)O)cc2c1C(=O)N(Cc1ccc(OC(F)(F)F)cc1)C2` (stereo not shown) [Example 52, 5-[(2-Hydroxy-propylamino)-methyl]-7-methyl-2-(4-trifluoromethoxy-benzyl)-2,3-dihydro-isoindol-1-one] yielded an EC50 of 7020 nM.
The figure for `CCNCc1cc(C)c2c(c1)CN(Cc1ccc(OC(F)(F)F)cc1)C2=O` [Example 53, 5-Ethylamino-methyl-7-methyl-2-(4-trifluoromethoxy-benzyl)-2,3-dihydro-isoindol-1-one] is 6310 nM; for `Cc1cc(CN2CCC(CCCc3ccccc3)CC2)cc2c1C(=O)N(Cc1ccc(OC(F)(F)F)cc1)C2` [Example 54, 7-Methyl-5-[4-(3-phenylpropyl)-piperidin-1-ylmethyl]-2-(4-trifluoromethoxy-benzyl)-2,3-dihydroisoindol-1-one] it is 100 nM; for `Cc1cc(CN2CCC(CCCc3ccc(-n4ccnc4)cc3)CC2)cc2c1C(=O)N(Cc1ccc(OC(F)(F)F)cc1)C2` [Example 55, 5-{4-[3-(4-Imidazol-1-yl-phenyl)-propyl]-piperidin-1-ylmethyl}-7-methyl-2-(4-trifluoromethoxy-benzyl)-2,3-dihydroisoindol-1-one] it is 20 nM.
In the case of `Cc1cc(CN2CCC(n3c(=O)[nH]c4ccccc43)CC2)cc2c1C(=O)N(Cc1ccc(OC(F)(F)F)cc1)C2` [Example 56, 1-{1-[7-Methyl-1-oxo-2-(4-trifluoromethoxy-benzyl)-2,3-dihydro-1H-isoindol-5-ylmethyl]-piperidin-4-yl}-1,3-dihydro-benzoimidazol-2-one] it was 60 nM; in that of `Cc1cc(OCc2ccccn2)cc2c1C(=O)N(Cc1ccc(OC(F)(F)F)cc1)C2` [Example 82, 7-Methyl-5-(pyridine-2-ylmethoxy)-2-(4-trifluoromethoxy-benzyl)-2,3-dihydro-isoindol-1-one], 100 nM.

A word on the EC50: it is the concentration needed to bring the measured effect to its halfway point. A higher EC50 goes with a less potent agent.
